According to patent US12472231B2 (priority 2020, dated 2025):
Where a SMILES comes first, the peptide text is derived from it.

System: A(H1N1)pdm09 virus
Assay: microbe, parasite or virus in culture
Type: cell-based

SMILES | emergence of drug-resistant virus after serial passages in presence of the agent | inhibition of P30 virus replication | inhibition of P40 virus replication | inhibition of P10 virus replication (2000 nM) | inhibition of P15 virus replication (8000 nM) | IC50 (Influenza A virus, H1N1, MDCK, 24 h, read-out: IC50 against parent A(H1N1)pdm09 virus (P0)) [nM]
CC[C@H](C)[C@H](NC(=O)[C@H](C)NC(=O)CNC(=O)[C@@H](N)CC(N)=O)C(=O)N[C@@H](CS)C(=O)N[C@@H](Cc1c[nH]c2ccccc12)C(=O)NCC(=O)N1CCC[C@H]1C(=O)N[C@@H](CS)C(=O)N1CCC[C@H]1C(=O)N[C@H](C(=O)N[C@@H](C)C(=O)N[C@@H](Cc1ccccc1)C(=O)N[C@@H](CCCNC(=N)N)C(=O)N[C@@H](CCC(N)=O)C(=O)N[C@H](C(=O)NCC(=O)N[C@@H](CC(N)=O)C(=O)N[C@@H](CS)C(=O)NCC(=O)N[C@@H](CCCNC(=N)N)C(=O)N[C@@H](Cc1ccccc1)C(=O)N[C@@H](CCCNC(=N)N)C(=O)N[C@H](C(=O)N[C@@H](CCCNC(=N)N)C(=O)N[C@@H](CS)C(=O)N[C@@H](CS)C(=O)N[C@@H](CCCNC(=N)N)C(=O)N[C@H](C(=O)N[C@@H](CCCNC(=N)N)C(=O)O)[C@@H](C)CC)C(C)C)[C@@H](C)CC)[C@@H](C)O [P9R] (H-NGAICWGPCPTAFRQIGNCGRFRVRCCRIR-OH) | No obvious drug-resistant virus | could efficiently inhibit | could efficiently inhibit |  |  | 
